In patent publication US10717699B1, “Crotonyl alcohol cassic acid ester with antibacterial activity and a method of preparing the same” (SOUTHWEST UNIVERSITY, priority 2020, dated 2020):
≈ marks a conversion by molar mass, not a printed value.

How the values were obtained:
Format in all cases: cell-based
[1] = test system: methicillin-resistant Staphylococcus aureus MRSA 18-222, 18-575; test: MIC by microbroth dilution method, MRSA strains; conditions: for Minimum bacteriostatic concentration: 37° C., 20-22 hours
Text: (§1) The minimal inhibitory concentration (MIC) of the compounds as determined by microbroth dilution method with gentamicin, cefazolin sodium and ceftriaxone sodium as positive control.
(§2) The experimental strains included methicillin-resistant Gram-positive bacteria: methicillin-resistant Staphylococcus aureus MRSA 18-222, 18-575; multiple drug-resistant […] bacteria: vancomycin-resistant enterococci VRE 18-80,18-94, multidrug-resistant Pseudomonas aeruginosa MDR-PA 18-1774,18-202, carbapenem-resistant Acinetobacter baumannii CR-AB 18-183,18-560. All the experimental strains were donated by Huashan Hospital affiliated to Fudan University (Institute of antibiotics, Fudan University) and used after routine identification.
(§3) Preparation of MHB medium: 20.0 g MHB medium was added to 1 L distilled water, boiled until completely dissolved, packed in conical bottles and sterilized at 121° C. for 15 min.
(§4) The experimental strain was cultured to the logarithmic growth phase: under aseptic condition, the experimental strain was inoculated into 100 mL MHB medium and incubated in a constant temperature and humidity incubator at 37° C. for 20-22 hours.
(§5) Preparation of storage solution: weigh the sample to be tested, dissolve it with 1% DMSO solution, prepare a storage solution with a concentration of 2560 μg/mL, weigh a positive reference substance, dissolve it with aseptic distilled water, and configure a storage solution with a concentration of 2560 μg/mL.
(§6) Preparation of bacterial suspension: under aseptic condition, the experimental strains cultured to logarithmic growth phase were adjusted to 0.5 MCF turbidity standard with MHB medium and diluted according to 1:10, and the bacterial suspension with concentration of 10^6 CFU/mL was prepared for standby.
(§7) Dilution of storage solution and inoculation of experimental strain: under aseptic condition, the storage solution was diluted to 256 μg/mL solution. Take a sterile 96-well plate, add 200 μL MHB medium to the 12th well, and add 100 μL MHB medium to each well. Add 100 μL of positive control solution to the first well, mix well, and suck 100 μL from it and discard. Add 100 μL of the compound sample solution to the second well, mix well, and then pipette 100 μL to the third well. After mixing, pipette 100 μL to the fourth well, and dilute to the 11th well in this way. Finally, 100 μL was pipetted from the 11th well and discarded. The 12th hole was the growth control without drugs. So far, the concentration of the positive reference substance is 128 μg/mL, the concentrations of the sample solution are 128, […], 8, 4, 2, 1, 0.5, 0.25 μg/mL respectively. Then, 10μL of the prepared bacterial suspension is added to each well, so that the final concentration of the bacterial liquid in each well is 5×10^5 CFU/mL.
(§8) Incubation: Cover the 96-well plate inoculated with the experimental strains, and incubate in a constant temperature and humidity box at 37° C. for 20-22 hours.

[2] = test system: vancomycin-resistant enterococci VRE 18-80,18-94; test: MIC by microbroth dilution method, VRE strains; conditions: 37° C., 20-22 hours
Text: as §1, §2, §3, §4, §5, §6, §7, §8

[3] = test system: multidrug-resistant Pseudomonas aeruginosa MDR-PA 18-1774,18-202; test: MIC by microbroth dilution method, MDR-PA strains; conditions: 37° C., 20-22 hours
Text: as §1, §2, §3, §4, §5, §6, §7, §8

[4] = test system: carbapenem-resistant Acinetobacter baumannii CR-AB 18-183,18-560; test: MIC by microbroth dilution method, CR-AB strains; conditions: 37° C., 20-22 hours
Text: as §1, §2, §3, §4, §5, §6, §7, §8

drug-resistant bacteria = test: Antibacterial activity test, summary over all experimental strains; conditions: summary of FIG. 1-6 and Table 1
Text: as §1, §2, §3
The experimental strain was cultured to the logarithmic growth phase: under aseptic condition, the experimental strain was inoculated into 100 mL MHB medium and incubated in a constant temperature and humidity incubator at 37° C. for 20-22 hours. […]

Compound | Minimum bacteriostatic concentration ([1]; strain MRSA 18-222) | Minimum bacteriostatic concentration ([1]; strain MRSA 18-575) | Minimum bacteriostatic concentration ([2]; strain VRE 18-80) | Minimum bacteriostatic concentration ([2]; strain VRE 18-94) | Minimum bacteriostatic concentration ([3]; strain MDR-PA 18-174) | Minimum bacteriostatic concentration ([3]; strain MDR-PA 18-202) | Minimum bacteriostatic concentration ([4]; strain CR-AB 18-183) | Minimum bacteriostatic concentration ([4]; strain CR-AB 18-560) | inhibitory effect on drug-resistant bacteria (drug-resistant bacteria) | MIC ([1]; Staphylococcus aureus, drug-resistant Gram-positive bacteria MRSA, strain not given)
O=C(O)c1cc(O)c2c(c1)C(=O)c1cccc(O)c1C2=O [Cassic acid] | >128 µg/mL | >128 µg/mL | >128 µg/mL | >128 µg/mL | >128 µg/mL | >128 µg/mL | >128 µg/mL | >128 µg/mL | no inhibitory effect | 
Cc1nnc(SCC2=C(C(=O)O)N3C(=O)[C@@H](NC(=O)Cn4cnnn4)[C@H]3SC2)s1 [Cefazolin sodium, cefazolin sodium] | >128 µg/mL | >128 µg/mL | 32 µg/mL | >128 µg/mL | 8 µg/mL | 128 µg/mL | >128 µg/mL | >128 µg/mL |  | 
CO/N=C(\C(=O)N[C@@H]1C(=O)N2C(C(=O)O)=C(CSc3nc(=O)c(=O)[nH]n3C)CS[C@H]12)c1csc(N)n1 [Ceftriaxone sodium, ceftriaxone sodium] | >128 µg/mL | >128 µg/mL | 8 µg/mL | >128 µg/mL | 128 µg/mL | 16 µg/mL | >128 µg/mL | >128 µg/mL |  | 
C/C=C/COC(=O)c1cc(O)c2c(c1)C(=O)c1cccc(O)c1C2=O [Crotonyl alcohol cassic acid ester, (E)-but-2-en-1-yl 4,5-dihydroxy-9,10-dioxo-9,10-dihydroanthracene-2-carboxylate] | 4 µg/mL | 4 µg/mL | >128 µg/mL | >128 µg/mL | >128 µg/mL | >128 µg/mL | >128 µg/mL | >128 µg/mL |  | 4 µg/mL (≈ 11.8 µM)
CC=CCO [Crotonyl alcohol, 2-butenol] | >128 µg/mL | >128 µg/mL | >128 µg/mL | >128 µg/mL | >128 µg/mL | >128 µg/mL | >128 µg/mL | >128 µg/mL | no inhibitory effect | 
gentamicin | 128 µg/mL | 2 µg/mL | 0.0625 µg/mL | >128 µg/mL | 0.0625 µg/mL | 0.0625 µg/mL | >128 µg/mL | >128 µg/mL |  | 
